Measured values reported in the supplement of paper PMC10307832.

What was measured:
Test in all cases: relative viability (nuclei count vs DMSO), 5 days (fraction); higher = more cells survive
Ruxolitinib + Navitoclax = compound: N#CC[C@H](C1CCCC1)n1cc(-c2ncnc3[nH]ccc23)cn1 [Ruxolitinib] + CC1(C)CCC(c2ccc(Cl)cc2)=C(CN2CCN(c3ccc(C(=O)NS(=O)(=O)c4ccc(N[C@H](CCN5CCOCC5)CSc5ccccc5)c(S(=O)(=O)C(F)(F)F)c4)cc3)CC2)C1 [Navitoclax] (partner 0.5 µM)
Procedure, shortened: (§1)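 Relative viability equals treated-well nuclei counts divided by vehicle-well nuclei counts. Counts came from 4× images of lung cancer cell lines grown in 1536-well plates for 5 days after pin-tool dosing on the day after seeding. Dosing used one drug alone or a fixed anchor-drug dose plus five library-drug doses (not always all listed) in √10 steps, and values are medians of duplicate plates.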

Ruxolitinib + Pemetrexed = compound: N#CC[C@H](C1CCCC1)n1cc(-c2ncnc3[nH]ccc23)cn1 [Ruxolitinib] + Nc1nc2[nH]cc(CCc3ccc(C(=O)N[C@@H](CCC(=O)O)C(=O)O)cc3)c2c(=O)[nH]1 [Pemetrexed] (partner 0.2 µM)
Procedure, shortened: as §1

Ruxolitinib + Dasatinib = compound: N#CC[C@H](C1CCCC1)n1cc(-c2ncnc3[nH]ccc23)cn1 [Ruxolitinib] + Cc1nc(Nc2ncc(C(=O)Nc3c(C)cccc3Cl)s2)cc(N2CCN(CCO)CC2)n1 [Dasatinib] (partner 0.075 µM)
Procedure, shortened: as §1

Ruxolitinib + Foretinib = compound: N#CC[C@H](C1CCCC1)n1cc(-c2ncnc3[nH]ccc23)cn1 [Ruxolitinib] + COc1cc2c(Oc3ccc(NC(=O)C4(C(=O)Nc5ccc(F)cc5)CC4)cc3F)ccnc2cc1OCCCN1CCOCC1 [Foretinib] (partner 0.25 µM)
Procedure, shortened: as §1

Cell Line | relative viability (Ruxolitinib + Navitoclax; first compound 0.08 µM) | relative viability (Ruxolitinib + Navitoclax; first compound 0.253 µM) | relative viability (Ruxolitinib + Navitoclax; first compound 0.8 µM) | relative viability (Ruxolitinib + Navitoclax; first compound 2.53 µM) | relative viability (Ruxolitinib + Navitoclax; first compound 8 µM) | relative viability (Ruxolitinib + Pemetrexed; first compound 0.08 µM) | relative viability (Ruxolitinib + Pemetrexed; first compound 0.8 µM) | relative viability (Ruxolitinib + Pemetrexed; first compound 2.53 µM) | relative viability (Ruxolitinib + Pemetrexed; first compound 8 µM) | relative viability (Ruxolitinib + Dasatinib; first compound 0.08 µM) | relative viability (Ruxolitinib + Dasatinib; first compound 0.253 µM) | relative viability (Ruxolitinib + Dasatinib; first compound 0.8 µM) | relative viability (Ruxolitinib + Dasatinib; first compound 2.53 µM) | relative viability (Ruxolitinib + Dasatinib; first compound 8 µM) | relative viability (Ruxolitinib + Foretinib; first compound 0.08 µM) | relative viability (Ruxolitinib + Foretinib; first compound 0.253 µM) | relative viability (Ruxolitinib + Foretinib; first compound 0.8 µM) | relative viability (Ruxolitinib + Foretinib; first compound 2.53 µM) | relative viability (Ruxolitinib + Foretinib; first compound 8 µM) | relative viability (Ruxolitinib + Pemetrexed; first compound 0.253 µM)
NCI-H2087 | 0.922 | 0.874 | 0.846 | 0.801 | 0.795 | 0.685 | 0.726 | 0.703 | 0.652 | 0.836 | 0.661 | 0.675 | 0.431 | 0.52 | 1.03 | 0.983 | 1.28 | 0.975 | 0.772 | –
NCI-H2126 | 0.82 | 0.725 | 0.781 | 0.8 | 0.689 | 0.757 | 0.789 | 0.721 | 0.663 | 0.599 | 0.526 | 0.715 | 0.616 | 0.453 | 1.09 | 1.27 | 1.2 | 1.12 | 1.16 | 0.736
NCI-H2170 | 0.6 | 0.575 | 0.618 | 0.593 | 0.48 | 0.256 | 0.259 | 0.266 | 0.276 | 0.691 | 0.681 | 0.627 | 0.599 | 0.483 | 0.992 | 0.609 | 0.602 | 0.951 | 0.943 | 0.262
NCI-H2228 | 0.925 | 0.987 | 1.02 | 0.921 | 0.712 | 0.332 | 0.318 | 0.324 | 0.321 | 0.399 | 0.457 | 0.484 | 0.401 | 0.198 | 0.86 | 0.911 | 0.794 | 0.717 | 0.429 | 0.342
NCI-H2347 | 0.783 | 0.72 | 0.99 | 0.741 | 0.758 | 0.459 | 0.451 | 0.406 | 0.434 | 0.295 | 0.341 | 0.297 | 0.29 | 0.333 | – | 0.84 | 0.856 | 0.769 | 1.06 | 0.407
NCI-H2405 | – | 0.771 | 1.28 | 0.456 | 0.471 | 1.07 | 1.13 | 0.895 | 0.592 | – | 0.192 | 0.214 | 0.189 | 0.218 | – | 1.06 | 1.17 | 1.08 | 0.875 | 1.11
NCI-H3122 | 1.04 | 1.03 | 0.981 | 0.923 | 0.963 | 0.212 | 0.192 | 0.19 | 0.188 | 0.852 | 0.725 | 0.932 | 0.634 | 0.286 | 0.942 | 0.873 | 1.01 | 0.881 | 0.948 | 0.198
PC-3 [JPC-3] | 0.69 | 0.771 | 0.771 | 0.757 | 0.73 | – | 1.18 | 1.11 | 0.907 | 0.684 | 1.06 | 0.989 | 0.872 | 0.883 | 0.859 | 1.01 | 0.975 | 0.957 | 0.871 | 1.13
PC-14 | – | 1.03 | 1.01 | 0.927 | 0.723 | – | 0.122 | 0.139 | 0.12 | – | 0.334 | 0.349 | 0.155 | 0.0674 | – | 0.947 | 0.971 | 0.875 | 0.828 | 0.117
RERF-LC-KJ | 1.05 | 0.963 | 1.59 | 1.15 | 0.657 | 0.471 | 0.505 | 0.465 | 0.456 | 0.886 | 0.742 | 0.942 | 0.737 | 0.635 | 0.862 | 0.95 | 0.914 | 0.921 | 0.927 | 0.485
SK-LU-1 | 0.79 | 0.634 | 0.0636 | 0.539 | 0.656 | 1.03 | 1.01 | 0.919 | 0.792 | 0.206 | 0.166 | 0.166 | 0.135 | 0.164 | 0.813 | 0.806 | 0.876 | 0.75 | 0.676 | 1.02
SK-MES-1 | 1.3 | 1.12 | 1.26 | 1.18 | 0.9 | 1.03 | 1.01 | 0.849 | 0.823 | 0.313 | 0.372 | 0.315 | 0.199 | 0.285 | 0.927 | 0.714 | 0.955 | 0.788 | 0.768 | 0.865
SW 1573 | 1.06 | 0.925 | 1.02 | 0.918 | 1.04 | 0.878 | 0.957 | 0.768 | 0.867 | 0.742 | 0.459 | 0.72 | 0.357 | 0.237 | 0.979 | 0.916 | 1.1 | 0.834 | 0.885 | 0.855
